Experiments:
Assay in all cases: relative viability (nuclei count vs DMSO), 5 days (fraction); higher = more cells survive
[1] = compound: C1CC2=C(C1)C=C(C=C2)OC3=NC(=C4C(=N3)N(C=N4)CC5=CC=C(C=C5)C6=CC=CC=C6)N[C@@H](CC7=CC=CC=C7)CO [QS11] + CC1(C)CCC(c2ccc(Cl)cc2)=C(CN2CCN(c3ccc(C(=O)NS(=O)(=O)c4ccc(N[C@H](CCN5CCOCC5)CSc5ccccc5)c(S(=O)(=O)C(F)(F)F)c4)cc3)CC2)C1 [Navitoclax] (partner 0.5 µM)
Summary of the method: (§1)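 Five library-drug doses in √10 steps were combined with a fixed anchor-drug dose, or a single drug was given alone, by pin tool to lung cancer cell lines in 1536-well plates the day after seeding. Nuclei were stained and counted after 5 days. Relative viability is the nuclei count in treated wells over that in vehicle wells, taken as the median of duplicate plates.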

[2] = compound: C[As](C)SC[C@H](NC(=O)CC[C@H](N)C(=O)O)C(=O)NCC(=O)O [Darinaparsin] + CC(=O)Nc1cccc(-n2c(=O)n(C3CC3)c(=O)c3c(Nc4ccc(I)cc4F)n(C)c(=O)c(C)c32)c1 [Trametinib] (partner 0.02 µM)
Summary of the method: as §1

[3] = compound: CC1=C(C=C(C=C1)NC(=O)C2=CC(=CC=C2)C(C)(C)C#N)NC3=CC4=C(C=C3)N=CN(C4=O)C [AZ628] + COc1cccc2cc(-c3nc([C@H]4CC[C@H](C(=O)O)CC4)n4ncnc(N)c34)[nH]c12 [OSI-027] (partner 0.5 µM)
Summary of the method: as §1

[4] = compound: C[As](C)SC[C@H](NC(=O)CC[C@H](N)C(=O)O)C(=O)NCC(=O)O [Darinaparsin] + C[C@]1(O)C[C@@H](c2nc(-c3ccc4ccc(-c5ccccc5)nc4c3)c3c(N)nccn32)C1 [Linsitinib] (partner 1 µM)
Summary of the method: as §1

| Cell Line | relative viability ([1]; first compound 0.08 µM) | relative viability ([1]; first compound 0.253 µM) | relative viability ([1]; first compound 0.8 µM) | relative viability ([1]; first compound 2.53 µM) | relative viability ([1]; first compound 8 µM) | relative viability ([2]; first compound 0.08 µM) | relative viability ([2]; first compound 0.8 µM) | relative viability ([2]; first compound 2.53 µM) | relative viability ([2]; first compound 8 µM) | relative viability ([3]; first compound 0.08 µM) | relative viability ([3]; first compound 0.253 µM) | relative viability ([3]; first compound 0.8 µM) | relative viability ([3]; first compound 2.53 µM) | relative viability ([3]; first compound 8 µM) | relative viability ([4]; first compound 0.08 µM) | relative viability ([4]; first compound 0.8 µM) | relative viability ([4]; first compound 2.53 µM) | relative viability ([4]; first compound 8 µM) |
| --- | --- | --- | --- | --- | --- | --- | --- | --- | --- | --- | --- | --- | --- | --- | --- | --- | --- | --- |
| PC-14 | 1.1 | 1.02 | 0.95 | 1.03 | 0.921 | 1.08 | 0.798 | 0.741 | 0.923 | 0.727 | 0.956 | 0.733 | 0.666 | 0.329 | 1.04 | 0.94 | 0.896 | 1.09 |
| EPLC-272H | 1.13 | 1.17 | 1.15 | 1.08 | 1.36 | 0.292 | 0.311 | 0.31 | 0.305 | 0.211 | 0.258 | 0.295 | 0.238 | 0.171 | 1.2 | 1.31 | 0.956 | 1.17 |
| NCI-H2228 | 0.852 | 1.1 | 0.483 | 0.756 | 1.29 | 0.563 | 0.382 | 0.462 | 0.354 | 0.627 | 0.521 | 0.519 | 0.623 | 0.281 | 0.817 | 0.702 | 0.743 | 0.746 |
| LC-2-ad | 0.407 | 0.357 | 0.488 | 0.335 | 0.384 | 0.975 | 0.903 | 0.815 | 1.08 | 0.817 | 0.87 | 0.779 | 0.821 | 0.703 | 0.98 | 0.808 | 0.812 | 0.843 |
| HOP-62 | 1.07 | 1.15 | 1.04 | 0.785 | 1.22 | 0.401 | 0.385 | 0.316 | 0.428 | 0.828 | 0.857 | 0.831 | 0.857 | 0.43 | 1.25 | 0.94 | 0.899 | 1.02 |
| UMC-11 | 0.293 | 0.308 | 0.298 | 0.424 | 0.54 | 0.781 | 0.643 | 0.729 | 0.704 | 0.468 | 0.496 | 0.46 | 0.464 | 0.382 | 1.04 | 1.07 | 0.862 | 1.32 |
| Calu-6 | 1.08 | 0.844 | 0.872 | 1.01 | 0.901 | – | – | – | – | – | – | – | – | – | 1.06 | 1.06 | 0.815 | 1.05 |
| HCC-44 | 0.943 | 0.93 | 0.666 | 0.792 | 0.718 | 1.11 | 1.2 | 0.942 | 1.1 | 0.453 | 0.441 | 0.493 | 0.374 | 0.365 | 0.841 | 0.636 | 0.441 | 0.86 |

— the supplement of paper PMC10307832
